Our source for the TGI and GI50 values is PubChem BioAssay (NCI).

“And” between values parts separate entries of the source, which are not always exact repeats. Identical values can stand only once.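 Interpolation was linear, between the two tested concentrations surrounding the appropriate level; five concentrations were tested over 48 hours in 96-well plates. At the GI50, growth is halved. Definition used: TGI = concentration required for complete inhibition of growth.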

Test in all cases: NCI tumour cell line growth inhibition, 48 h
Test [1] deals with P388/ADR leukemia.
Test [2] concerns P388 leukemia.
The test system of test [3] is XF 498 CNS.
Test [4] deals with MDA-N.
In test [5] the test system is M19-MEL melanoma.
In test [6] the test system is SNB-78 CNS.
In test [7] the test system is DLD-1 colon.
For test [8], the system named is DMS 114 small cell lung.
For test [9], the system named is LXFL 529 NSCLC.
For test [10], the system named is SN12K1 renal.
The subject of test [11] is RXF-631 renal.
For test [12], the system named is KM20L2 colon.

As to `CCCCCCCCCCCCCCCCOP(=O)([O-])OCC[N+](C)(C)C`, the TGI was > 86.6 µM in [1]; > 66.3 µM in test [2]; 60.9 µM in test [3]; 54.8 µM in test [4]; 41.3 µM in test [5]; > 100 µM in [6]. Moreover, the results for the TGI in test [7] and in test [8] were 62.2 µM and > 100 µM, respectively.
Consider `CO[C@H]1C[C@](C)(O)Cc2cc3c(c(O)c21)C(=O)c1c(O)cc2c(c1C3=O)O[C@@H]1O[C@@]2(C)[C@H](O)[C@@H](N(C)C)[C@@H]1O`, for which the TGI in test [1] is 16.1 µM; in [9], 7.33 µM; in [10], 2.15 µM; in [2], 3.3 µM; in test [3], 2.51 µM and 0.689 µM; in [4] it was 10.6 µM. Moreover, the TGI is 2.56 µM and 9.81 µM in [5]; 9.66 µM and 21.8 µM in [6]; 2.71 µM in test [11]; 4.08 µM and 22.3 µM in test [7]; 5.01 µM and 17.2 µM in test [12]; 2.32 µM and 1.71 µM in test [8]. Moreover, the GI50 in test [3] was 1.15 µM; in test [6], 5.05 µM; in test [7], 1.67 µM; in [12], 1.74 µM; in test [8], 0.533 µM.
In the case of `CCCCCCCC/C=C1\CCC(CN2CCOCC2)C1=O` (stereo not drawn), the TGI in [9] worked out at 9.2 µM; in [3], 27.5 µM; in [4], 22.4 µM; in [5], 26.3 µM; in [6], 31.8 µM; in test [11], 64.8 µM. Further, the TGI in test [7] stood at 8.03 µM; in [12] it was 33 µM; in [8], 20.7 µM.
Consider `N/N=C(\c1nc2ccc(Cl)cc2[nH]c1=O)C(O)c1ccc(Cl)c(Cl)c1` (stereo not drawn), for which the TGI in [9], in [3], in test [5], in test [6], in test [11] and in test [7] was > 100 µM each time. In addition, the TGI in test [12] and in test [8] was > 100 µM in each case.
In the case of `NCCNC(=O)c1cccc2cc3ccccc3nc12`, the TGI in [9] was > 36.6 µM; in test [3], 6.04 µM; in test [5] it was 5.34 µM; in [6] it was 37 µM; in test [11] it was 16.7 µM; in test [7], 18.6 µM. In addition, the TGI in test [12] is 12.5 µM; in test [8], 6.66 µM.
For the molecule `COc1ccc2c(c1)NC1(O)c3ccccc3C(=O)C21O` (stereo not drawn), the TGI in test [9], in test [3], in test [5], in [6], in test [11] and in test [7] was > 100 µM in each case. The TGI in test [12] and in test [8] was > 100 µM throughout.
